Measurements: ChEMBL document CHEMBL5316357, “Discovery of Linvencorvir (RG7907), a Hepatitis B Virus Core Protein Allosteric Modulator, for the Treatment of Chronic HBV Infection” (J Med Chem, 2023)

Key:
[1] = Half life in cynomolgus monkey at 2 mg/kg,iv by LC-MS/MS analysis; assay type: ADME, organism-based, Macaca fascicularis; conditions: in vivo
[2] = Tmax in female Wistar Han rat at 10 mg/kg,po by LC-MS/MS analysis; assay type: ADME, organism-based; conditions: in vivo
[3] = AUClast in female cynomolgus monkey at 30 mg/kg,po by LC-MS/MS analysis; assay type: ADME, organism-based, Macaca fascicularis; set-up: dose 30 mg/kg, route po; conditions: in vivo
[4] = Tmax in male minipig at 3 mg/kg,po by LC-MS/MS analysis; assay type: ADME, organism-based, Sus scrofa domesticus; conditions: pig, in vivo
[5] = AUClast in male Wistar Han rat at 3 mg/kg,po by LC-MS/MS analysis; assay type: ADME, organism-based; set-up: dose 3 mg/kg, route po; conditions: in vivo
[6] = Cmax in female cynomolgus monkey at 10 mg/kg,po by LC-MS/MS analysis; assay type: ADME, organism-based, Macaca fascicularis; set-up: dose 10 mg/kg, route po; conditions: in vivo
[7] = Volume of distribution at steady state in Wistar Han rat at 2 mg/kg,iv by LC-MS/MS analysis; assay type: ADME, organism-based; conditions: in vivo, read-out: Vdss
[8] = Half life in female Wistar Han rat at 30 mg/kg,po by LC-MS/MS analysis; assay type: ADME, organism-based; conditions: in vivo
[9] = Oral bioavailability in female Wistar Han rat at 30 mg/kg by LC-MS/MS analysis; assay type: ADME, organism-based; conditions: in vivo
[10] = Half life in female minipig at 3 mg/kg,po by LC-MS/MS analysis; assay type: ADME, organism-based, Sus scrofa domesticus; conditions: pig, in vivo
[11] = Oral bioavailability in male Wistar Han rat at 30 mg/kg by LC-MS/MS analysis; assay type: ADME, organism-based; conditions: in vivo
[12] = Cmax in male Wistar Han rat at 3 mg/kg,po by LC-MS/MS analysis; assay type: ADME, organism-based; set-up: dose 3 mg/kg, route po; conditions: in vivo
[13] = Half life in female Wistar Han rat at 3 mg/kg,po by LC-MS/MS analysis; assay type: ADME, organism-based; conditions: in vivo
[14] = Half life in minipig at 2 mg/kg,iv by LC-MS/MS analysis; assay type: ADME, organism-based, Sus scrofa domesticus; conditions: pig, in vivo
[15] = Half life in female minipig at 10 mg/kg,po by LC-MS/MS analysis; assay type: ADME, organism-based, Sus scrofa domesticus; conditions: pig, in vivo
[16] = Toxicity in minipig assessed as NOAEL administrated upto 28 days; set-up: species or system Sus scrofa domesticus; conditions: pig, in vivo; time < 28 day
[17] = Half life in male minipig at 10 mg/kg,po by LC-MS/MS analysis; assay type: ADME, organism-based, Sus scrofa domesticus; conditions: pig, in vivo
[18] = Tmax in male minipig at 10 mg/kg,po by LC-MS/MS analysis; assay type: ADME, organism-based, Sus scrofa domesticus; conditions: pig, in vivo
[19] = Oral bioavailability in male cynomolgus monkey at 3 mg/kg by LC-MS/MS analysis; assay type: ADME, organism-based, Macaca fascicularis; conditions: in vivo
Cytochrome P450 3A4 = Cytochrome P450 3A4 (Homo sapiens, UniProt P08684); test: Inhibition of CYP3A4 (unknown origin); assay type: ADME
[20] = Cmax in female Wistar Han rat at 10 mg/kg,po by LC-MS/MS analysis; assay type: ADME, organism-based; set-up: dose 10 mg/kg, route po; conditions: in vivo
[21] = Half life in male Wistar Han rat at 3 mg/kg,po by LC-MS/MS analysis; assay type: ADME, organism-based; conditions: in vivo
[22] = Half life in male minipig at 3 mg/kg,po by LC-MS/MS analysis; assay type: ADME, organism-based, Sus scrofa domesticus; conditions: pig, in vivo
[23] = AUClast in female Wistar Han rat at 30 mg/kg,po by LC-MS/MS analysis; assay type: ADME, organism-based; set-up: dose 30 mg/kg, route po; conditions: in vivo
[24] = Half life in male cynomolgus monkey at 3 mg/kg,po by LC-MS/MS analysis; assay type: ADME, organism-based, Macaca fascicularis; conditions: in vivo
[25] = Oral bioavailability in male minipig at 10 mg/kg by LC-MS/MS analysis; assay type: ADME, organism-based, Sus scrofa domesticus; conditions: pig, in vivo
[26] = Oral bioavailability in mouse plasma at 3 mg/kg; assay type: ADME, organism-based; conditions: in vivo
[27] = Clearance in mouse plasma at 1 mg/kg,iv; assay type: ADME, organism-based
[28] = Half life in mouse plasma at 1 mg/kg,iv; assay type: ADME, organism-based
[29] = AUClast in female minipig at 10 mg/kg,po by LC-MS/MS analysis; assay type: ADME, organism-based, Sus scrofa domesticus; set-up: dose 10 mg/kg, route po; conditions: pig, in vivo
[30] = AUClast in Wistar Han rat at 2 mg/kg,iv by LC-MS/MS analysis; assay type: ADME, organism-based; set-up: dose 2 mg/kg, route iv; conditions: in vivo
[31] = Volume of distribution at steady state in mouse plasma at 1 mg/kg,iv; assay type: ADME, organism-based; conditions: read-out: Vdss
[32] = Oral bioavailability in male Wistar Han rat at 10 mg/kg by LC-MS/MS analysis; assay type: ADME, organism-based; conditions: in vivo
[33] = Cmax in female minipig at 30 mg/kg,po by LC-MS/MS analysis; assay type: ADME, organism-based, Sus scrofa domesticus; set-up: dose 30 mg/kg, route po; conditions: pig, in vivo
[34] = Cmax in female cynomolgus monkey at 3 mg/kg,po by LC-MS/MS analysis; assay type: ADME, organism-based, Macaca fascicularis; set-up: dose 3 mg/kg, route po; conditions: in vivo
[35] = AUClast in male Wistar Han rat at 30 mg/kg,po by LC-MS/MS analysis; assay type: ADME, organism-based; set-up: dose 30 mg/kg, route po; conditions: in vivo
[36] = Half life in female minipig at 30 mg/kg,po by LC-MS/MS analysis; assay type: ADME, organism-based, Sus scrofa domesticus; conditions: pig, in vivo
[37] = Oral bioavailability in female minipig at 3 mg/kg by LC-MS/MS analysis; assay type: ADME, organism-based, Sus scrofa domesticus; conditions: pig, in vivo
[38] = Volume of distribution at steady state in cynomolgus monkey at 2 mg/kg,iv by LC-MS/MS analysis; assay type: ADME, organism-based, Macaca fascicularis; conditions: in vivo, read-out: Vdss
[39] = Tmax in female cynomolgus monkey at 30 mg/kg,po by LC-MS/MS analysis; assay type: ADME, organism-based, Macaca fascicularis; conditions: in vivo
[40] = Clearance in human hepatocyte at 2 uM measured upto 120 mins by LC-MS/MS analysis; assay type: ADME, cell-based; conditions: hepatocytes
[41] = AUClast in male Wistar Han rat at 10 mg/kg,po by LC-MS/MS analysis; assay type: ADME, organism-based; set-up: dose 10 mg/kg, route po; conditions: in vivo
[42] = Oral bioavailability in male cynomolgus monkey at 30 mg/kg by LC-MS/MS analysis; assay type: ADME, organism-based, Macaca fascicularis; conditions: in vivo
[43] = Half life in male cynomolgus monkey at 30 mg/kg,po by LC-MS/MS analysis; assay type: ADME, organism-based, Macaca fascicularis; conditions: in vivo
[44] = Clearance in cynomolgus monkey at 2 mg/kg,iv by LC-MS/MS analysis; assay type: ADME, organism-based, Macaca fascicularis; conditions: in vivo
Cytochrome P450 2C19 = Cytochrome P450 2C19 (Homo sapiens, UniProt P33261); test: Inhibition of CYP2C19 (unknown origin); assay type: ADME
[45] = Oral bioavailability in female cynomolgus monkey at 30 mg/kg by LC-MS/MS analysis; assay type: ADME, organism-based, Macaca fascicularis; conditions: in vivo
[46] = Ratio of AUC (0 to infinity) in liver to plasma of mouse at 3 mg/kg,po; assay type: ADME, organism-based; conditions: read-out: Ratio AUC
[47] = AUC (0-infinity) in mouse plasma at 1 mg/kg,iv; assay type: ADME, organism-based; set-up: dose 1 mg/kg, route iv; conditions: in vivo
[48] = Tmax in female Wistar Han rat at 30 mg/kg,po by LC-MS/MS analysis; assay type: ADME, organism-based; conditions: in vivo
[49] = AUClast in male cynomolgus monkey at 10 mg/kg,po by LC-MS/MS analysis; assay type: ADME, organism-based, Macaca fascicularis; set-up: dose 10 mg/kg, route po; conditions: in vivo
[50] = AUClast in female minipig at 3 mg/kg,po by LC-MS/MS analysis; assay type: ADME, organism-based, Sus scrofa domesticus; set-up: dose 3 mg/kg, route po; conditions: pig, in vivo
[51] = AUClast in female Wistar Han rat at 10 mg/kg,po by LC-MS/MS analysis; assay type: ADME, organism-based; set-up: dose 10 mg/kg, route po; conditions: in vivo
[52] = Cmax in male minipig at 30 mg/kg,po by LC-MS/MS analysis; assay type: ADME, organism-based, Sus scrofa domesticus; set-up: dose 30 mg/kg, route po; conditions: pig, in vivo
[53] = Tmax in male cynomolgus monkey at 10 mg/kg,po by LC-MS/MS analysis; assay type: ADME, organism-based, Macaca fascicularis; conditions: in vivo
[54] = Half life in Wistar Han rat at 2 mg/kg,iv by LC-MS/MS analysis; assay type: ADME, organism-based; conditions: in vivo
[55] = Oral bioavailability in male cynomolgus monkey at 10 mg/kg by LC-MS/MS analysis; assay type: ADME, organism-based, Macaca fascicularis; conditions: in vivo

Cytochrome P450 2C19, sequence (P33261 whole entry): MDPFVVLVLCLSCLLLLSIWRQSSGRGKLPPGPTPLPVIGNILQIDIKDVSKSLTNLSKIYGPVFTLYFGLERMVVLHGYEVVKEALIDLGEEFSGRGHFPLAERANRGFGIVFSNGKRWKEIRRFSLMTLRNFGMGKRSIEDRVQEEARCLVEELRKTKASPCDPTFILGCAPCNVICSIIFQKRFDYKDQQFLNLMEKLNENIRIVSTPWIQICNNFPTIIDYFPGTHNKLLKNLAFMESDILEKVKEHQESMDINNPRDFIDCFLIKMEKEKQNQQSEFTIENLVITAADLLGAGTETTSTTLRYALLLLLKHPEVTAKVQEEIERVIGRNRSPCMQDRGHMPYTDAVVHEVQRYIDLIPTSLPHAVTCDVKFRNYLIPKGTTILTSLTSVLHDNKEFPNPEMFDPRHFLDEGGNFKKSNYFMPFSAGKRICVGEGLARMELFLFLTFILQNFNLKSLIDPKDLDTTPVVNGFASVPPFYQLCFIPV
Cytochrome P450 3A4, sequence (P08684 whole entry): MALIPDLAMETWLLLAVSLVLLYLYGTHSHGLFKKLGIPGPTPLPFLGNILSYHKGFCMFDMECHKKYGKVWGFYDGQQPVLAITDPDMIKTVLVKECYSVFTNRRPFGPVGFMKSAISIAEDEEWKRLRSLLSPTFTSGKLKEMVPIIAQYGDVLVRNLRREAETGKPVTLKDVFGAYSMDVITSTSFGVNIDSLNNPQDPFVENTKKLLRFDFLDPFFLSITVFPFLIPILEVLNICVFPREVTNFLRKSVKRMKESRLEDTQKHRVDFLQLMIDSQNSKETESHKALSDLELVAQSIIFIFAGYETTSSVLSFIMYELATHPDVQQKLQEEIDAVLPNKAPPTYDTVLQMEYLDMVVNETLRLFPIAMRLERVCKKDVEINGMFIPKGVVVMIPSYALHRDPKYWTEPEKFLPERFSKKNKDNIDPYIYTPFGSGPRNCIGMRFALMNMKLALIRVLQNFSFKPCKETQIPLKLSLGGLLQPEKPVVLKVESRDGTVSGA

Question: Which results are given for `CCOC(=O)C1=C(CN2CCN3C(=O)N(CC(C)(C)C(=O)O)C[C@@H]3C2)NC(c2nccs2)=N[C@H]1c1cccc(F)c1C` [LINVENCORVIR]?
Answer: half-life [1]: 1.77 h; Tmax [2]: 1 h; AUC(0-t) [3]: 3150 ng·h/mL; Tmax [4]: 0.5 h; AUC(0-t) [5]: 209 ng·h/mL; Cmax [6]: 336 ng/mL; Vd [7]: 1.34 L/kg; half-life [8]: 1.8 h; bioavailability [9]: 105%; half-life [10]: 9.68 h; bioavailability [11]: 50%; Cmax [12]: 70.2 ng/mL; half-life [13]: 2.15 h; half-life [14]: 2.19 h; half-life [15]: 9.7 h; NOAEL at 672 h [16]: 350 mg/kg; half-life [17]: 7.28 h; Tmax [18]: 1 h; bioavailability [19]: 10.3%; IC50 (Cytochrome P450 3A4): > 50 µM; Cmax [20]: 683 ng/mL; half-life [21]: 1.87 h; half-life [22]: 9.69 h; AUC(0-t) [23]: 17800 ng·h/mL; half-life [24]: 6.25 h; bioavailability [25]: 18.6%; F [26]: 33%; clearance [27]: 20 mL/min/kg; half-life [28]: 0.9 h; AUC(0-t) [29]: 768 ng·h/mL; AUC(0-t) [30]: 1120 ng·h/mL; Vd [31]: 1 L/kg; bioavailability [32]: 26.2%; Cmax [33]: 429 ng/mL; Cmax [34]: 100 ng/mL; AUC(0-t) [35]: 8500 ng·h/mL; half-life [36]: 8.26 h; bioavailability [37]: 10.6%; Vd [38]: 0.67 L/kg; Tmax [39]: 2 h; CLhep predicted at 2 µM [40]: 5.6 mL/min/kg; AUC(0-t) [41]: 1440 ng·h/mL; bioavailability [42]: 25.8%; half-life [43]: 6.12 h; clearance [44]: 23.6 mL/min/kg; IC50 (Cytochrome P450 2C19): > 50 µM; bioavailability [45]: 18.6%; Kp [46]: 32; AUC [47]: 837 ng·h/mL; Tmax [48]: 2 h; AUC(0-t) [49]: 1430 ng·h/mL; AUC(0-t) [50]: 201 ng·h/mL; AUC(0-t) [51]: 1970 ng·h/mL; Cmax [52]: 768 ng/mL; Tmax [53]: 2 h; half-life [54]: 1.46 h; bioavailability [55]: 15.8%
